Test results: ChEMBL document CHEMBL5724914, “Linking interpersonal differences in gut microbiota composition and drug biotransformation activity” (2024)

details: human gut metagenome, 24 h, 2 µM
Note: call rule not given here.

Row | Bacterial Biotransformation | SMILES
1 | Compound NOT metabolized | N=C(N)NC(=O)Cc1c(Cl)cccc1Cl [GUANFACINE]
2 | Compound NOT metabolized | Nc1nc(N)nc(-c2cc(Cl)ccc2Cl)n1.O=C(O)/C=C\C(=O)O [IRSOGLADINE MALEATE]

experiment: (§1) The drug is tested on Z-025 corresponding to rabbit gut metagenome with ENA study accession number: PRJEB37062 and ENA sample accession number: ERS12561824 for biotransformation under anaerobic condition. The drug concentrations were measured over 9 timepoints collected between 0 and 24 hours of incubation by liquid-chromatography-coupled mass spectrometry (LC–MS); details: 2 µM

Row | Bacterial Biotransformation | SMILES
3 | Compound NOT metabolized | N=C(N)NC(=O)Cc1c(Cl)cccc1Cl [GUANFACINE]
4 | Compound metabolized | Nc1nc(N)nc(-c2cc(Cl)ccc2Cl)n1.O=C(O)/C=C\C(=O)O [IRSOGLADINE MALEATE]

experiment: as §1, with “Z-030” for “Z-025”, “mouse” for “rabbit”, “ERS12561829” for “ERS12561824”; details: 2 µM

Row | Bacterial Biotransformation | SMILES
5 | Compound NOT metabolized | N=C(N)NC(=O)Cc1c(Cl)cccc1Cl [GUANFACINE]
6 | Compound NOT metabolized | Nc1nc(N)nc(-c2cc(Cl)ccc2Cl)n1.O=C(O)/C=C\C(=O)O [IRSOGLADINE MALEATE]

details: human gut metagenome, 24 h, 2 µM; remark: another data set of the same source

Row | Bacterial Biotransformation | SMILES
7 | Compound NOT metabolized | N=C(N)NC(=O)Cc1c(Cl)cccc1Cl [GUANFACINE]
8 | Compound NOT metabolized | Nc1nc(N)nc(-c2cc(Cl)ccc2Cl)n1.O=C(O)/C=C\C(=O)O [IRSOGLADINE MALEATE]

details: human gut metagenome, 24 h, 2 µM; remark: another data set of the same source

Row | Bacterial Biotransformation | SMILES
9 | Compound NOT metabolized | N=C(N)NC(=O)Cc1c(Cl)cccc1Cl [GUANFACINE]
10 | Compound NOT metabolized | Nc1nc(N)nc(-c2cc(Cl)ccc2Cl)n1.O=C(O)/C=C\C(=O)O [IRSOGLADINE MALEATE]

details: human gut metagenome, 24 h, 2 µM; remark: another data set of the same source

Row | Bacterial Biotransformation | SMILES
11 | Compound NOT metabolized | N=C(N)NC(=O)Cc1c(Cl)cccc1Cl [GUANFACINE]
12 | Compound NOT metabolized | Nc1nc(N)nc(-c2cc(Cl)ccc2Cl)n1.O=C(O)/C=C\C(=O)O [IRSOGLADINE MALEATE]

details: human gut metagenome, 24 h, 2 µM; remark: another data set of the same source

Row | Bacterial Biotransformation | SMILES
13 | Compound NOT metabolized | N=C(N)NC(=O)Cc1c(Cl)cccc1Cl [GUANFACINE]
14 | Compound NOT metabolized | Nc1nc(N)nc(-c2cc(Cl)ccc2Cl)n1.O=C(O)/C=C\C(=O)O [IRSOGLADINE MALEATE]

details: human gut metagenome, 24 h, 2 µM; remark: another data set of the same source

Row | Bacterial Biotransformation | SMILES
15 | Compound NOT metabolized | N=C(N)NC(=O)Cc1c(Cl)cccc1Cl [GUANFACINE]
16 | Compound NOT metabolized | Nc1nc(N)nc(-c2cc(Cl)ccc2Cl)n1.O=C(O)/C=C\C(=O)O [IRSOGLADINE MALEATE]

details: human gut metagenome, 24 h, 2 µM; remark: another data set of the same source

Row | Bacterial Biotransformation | SMILES
17 | Compound NOT metabolized | N=C(N)NC(=O)Cc1c(Cl)cccc1Cl [GUANFACINE]
18 | Compound NOT metabolized | Nc1nc(N)nc(-c2cc(Cl)ccc2Cl)n1.O=C(O)/C=C\C(=O)O [IRSOGLADINE MALEATE]

details: human gut metagenome, 24 h, 2 µM; remark: another data set of the same source

Row | Bacterial Biotransformation | SMILES
19 | Compound NOT metabolized | N=C(N)NC(=O)Cc1c(Cl)cccc1Cl [GUANFACINE]
20 | Compound metabolized | Nc1nc(N)nc(-c2cc(Cl)ccc2Cl)n1.O=C(O)/C=C\C(=O)O [IRSOGLADINE MALEATE]

experiment: as §1, with “WLS-069” for “Z-025”, “human” for “rabbit”, “ERS12561748” for “ERS12561824”; details: 2 µM

Row | Bacterial Biotransformation | SMILES
21 | Compound NOT metabolized | N=C(N)NC(=O)Cc1c(Cl)cccc1Cl [GUANFACINE]
22 | Compound NOT metabolized | Nc1nc(N)nc(-c2cc(Cl)ccc2Cl)n1.O=C(O)/C=C\C(=O)O [IRSOGLADINE MALEATE]

experiment: as §1, with “WLS-039” for “Z-025”, “human” for “rabbit”, “ERS12561746” for “ERS12561824”; details: 2 µM

Row | Bacterial Biotransformation | SMILES
23 | Compound NOT metabolized | N=C(N)NC(=O)Cc1c(Cl)cccc1Cl [GUANFACINE]
24 | Compound NOT metabolized | Nc1nc(N)nc(-c2cc(Cl)ccc2Cl)n1.O=C(O)/C=C\C(=O)O [IRSOGLADINE MALEATE]

details: human gut metagenome, 24 h, 2 µM; remark: another data set of the same source

Row | Bacterial Biotransformation | SMILES
25 | Compound NOT metabolized | N=C(N)NC(=O)Cc1c(Cl)cccc1Cl [GUANFACINE]
26 | Compound NOT metabolized | Nc1nc(N)nc(-c2cc(Cl)ccc2Cl)n1.O=C(O)/C=C\C(=O)O [IRSOGLADINE MALEATE]

details: human gut metagenome, 24 h, 2 µM; remark: another data set of the same source

Row | Bacterial Biotransformation | SMILES
27 | Compound NOT metabolized | N=C(N)NC(=O)Cc1c(Cl)cccc1Cl [GUANFACINE]
28 | Compound NOT metabolized | Nc1nc(N)nc(-c2cc(Cl)ccc2Cl)n1.O=C(O)/C=C\C(=O)O [IRSOGLADINE MALEATE]

experiment: as §1, with “WLS-038” for “Z-025”, “human” for “rabbit”, “ERS12561745” for “ERS12561824”; details: 2 µM

Row | Bacterial Biotransformation | SMILES
29 | Compound NOT metabolized | N=C(N)NC(=O)Cc1c(Cl)cccc1Cl [GUANFACINE]
30 | Compound NOT metabolized | Nc1nc(N)nc(-c2cc(Cl)ccc2Cl)n1.O=C(O)/C=C\C(=O)O [IRSOGLADINE MALEATE]

experiment: as §1, with “Z-017” for “Z-025”, “mouse” for “rabbit”, “ERS12561816” for “ERS12561824”; details: 2 µM

Row | Bacterial Biotransformation | SMILES
31 | Compound NOT metabolized | N=C(N)NC(=O)Cc1c(Cl)cccc1Cl [GUANFACINE]
32 | Compound NOT metabolized | Nc1nc(N)nc(-c2cc(Cl)ccc2Cl)n1.O=C(O)/C=C\C(=O)O [IRSOGLADINE MALEATE]

experiment: as §1, with “Z-001” for “Z-025”, “mouse” for “rabbit”, “ERS12561801” for “ERS12561824”; details: 2 µM

Row | Bacterial Biotransformation | SMILES
33 | Compound NOT metabolized | N=C(N)NC(=O)Cc1c(Cl)cccc1Cl [GUANFACINE]
34 | Compound NOT metabolized | Nc1nc(N)nc(-c2cc(Cl)ccc2Cl)n1.O=C(O)/C=C\C(=O)O [IRSOGLADINE MALEATE]

details: human gut metagenome, 24 h, 2 µM; remark: another data set of the same source

Row | Bacterial Biotransformation | SMILES
35 | Compound NOT metabolized | N=C(N)NC(=O)Cc1c(Cl)cccc1Cl [GUANFACINE]
36 | Compound NOT metabolized | Nc1nc(N)nc(-c2cc(Cl)ccc2Cl)n1.O=C(O)/C=C\C(=O)O [IRSOGLADINE MALEATE]

details: human gut metagenome, 24 h, 2 µM; remark: another data set of the same source

Row | Bacterial Biotransformation | SMILES
37 | Compound NOT metabolized | N=C(N)NC(=O)Cc1c(Cl)cccc1Cl [GUANFACINE]
38 | Compound NOT metabolized | Nc1nc(N)nc(-c2cc(Cl)ccc2Cl)n1.O=C(O)/C=C\C(=O)O [IRSOGLADINE MALEATE]

experiment: as §1, with “Z-002” for “Z-025”, “ERS12561802” for “ERS12561824”; details: 2 µM

Row | Bacterial Biotransformation | SMILES
39 | Compound NOT metabolized | N=C(N)NC(=O)Cc1c(Cl)cccc1Cl [GUANFACINE]
40 | Compound NOT metabolized | Nc1nc(N)nc(-c2cc(Cl)ccc2Cl)n1.O=C(O)/C=C\C(=O)O [IRSOGLADINE MALEATE]
